Measured values as given in US20230287003A1, “BCL6 INHIBITORS” (Cancer Research Technology Limited, priority 2018, published 2023).

Tests used:
[1] = target: human BCL6 BTB domain (Trx-6×His-BCL6) / BCOR-AF633 peptide (Homo sapiens (Human), UniProt P41182); assay: HTRF assay; format: binding; details: 1 nM Trx-6×His-BCL6, 300 nM BCOR-AF633 peptide, 2 hours incubation
Protocol: The % inhibition at each concentration was calculated by normalising FRET ratio to the appropriate high (DMSO with all reagents) and low (DMSO without BCL6) controls.

[2] = target: BCL6-NCOR2(SMRT) corepressor protein-protein interaction (Homo sapiens (Human), UniProt P41182); assay: NanoBRET cell assay; format: cell-based; details: for IC50: read-out: NanoBRET cell avg pIC50 (converted)
Text: At 20 hr post-transfection, cells were collected, washed with PBS, and exchanged into media containing phenol red-free OptiMEM+4% FBS (Life Technology).

Structure (SMILES)	HTRF avg pIC50 (1 nM) [1]	IC50 [2] [nM]	NanoBRET cell avg pIC50 ([2]; HEK293T cells co-transfected with BCL6-nanoLuc and NCOR2-HaloTag, 6 hr incubation)
Cn1c(=O)c2c(c3cc(Nc4nc(N5C6COCC5CC(O)C6)ncc4Cl)ccc31)N[C@@H](C1CC1)CCO2 (stereo partly drawn) [Example 5n, (R)-10-((5-chloro-2-((1R,5S,7S)-7-hydroxy-3-oxa-9-azabicyclo[3.3.1]nonan-9-yl)pyrimidin-4-yl)amino)-2-cyclopropyl-7-methyl-1,2,3,4-tetrahydro-[1,4]oxazepino[2,3-c]quinolin-6(7H)-one]	7.97	36.3	–
Cn1c(=O)c2c(c3cc(Nc4nc(N5C6CC7CC5CC(C6)O7)ncc4Cl)ccc31)N[C@@H](C1CC1)CCO2 [Example 5o, (R)-10-((2-(2-oxa-6-azaadamantan-6-yl)-5-chloropyrimidin-4-yl)amino)-2-cyclopropyl-7-methyl-1,2,3,4-tetrahydro-[1,4]oxazepino[2,3-c]quinolin-6(7H)-one]	7.64	89.1	–
O=c1c2c(c3cc(Nc4nc(N5C6CCC5COC6)ncc4Cl)ccc3n1CC1CC(F)(F)C1)N[C@@H](C1CC1)CCO2 [Example 5q, (R)-10-((2-(3-oxa-8-azabicyclo[3.2.1]octan-8-yl)-5-chloropyrimidin-4-yl)amino)-2-cyclopropyl-7-((3,3-difluorocyclobutyl)methyl)-1,2,3,4-tetrahydro-[1,4]oxazepino[2,3-c]quinolin-6(7H)-one]	7.63	97.7	–
O=c1c2c(c3cc(Nc4nc(N5C6CCC5COC6)ncc4Cl)ccc3n1CC1CC1)N[C@@H](C1CC1)CCO2 [Example 5r, (R)-10-((2-(3-oxa-8-azabicyclo[3.2.1]octan-8-yl)-5-chloropyrimidin-4-yl)amino)-2-cyclopropyl-7-(cyclopropylmethyl)-1,2,3,4-tetrahydro-[1,4]oxazepino[2,3-c]quinolin-6(7H)-one]	7.41	43.7	–
Cn1c(=O)c2c(c3cc(Nc4nc(N5CCC(F)(F)CC5)ncc4Cl)cnc31)N[C@@H](C1CC1)CCO2 [Example 5s, (R)-10-((5-chloro-2-(4,4-difluoropiperidin-1-yl)pyrimidin-4-yl)amino)-2-cyclopropyl-7-methyl-1,2,3,4-tetrahydro-[1,4]oxazepino[2,3-c][1,8]naphthyridin-6(7H)-one]	7.13	234	–
O=c1c2c(c3cc(Nc4nc(N5C6COCC5CC(O)C6)ncc4Cl)ccc3n1CC1CC(F)(F)C1)N[C@@H](C1CC1)CCO2 (stereo partly drawn) [Example 5u, (R)-10-((5-chloro-2-((1R,5S,7S)-7-hydroxy-3-oxa-9-azabicyclo[3.3.1]nonan-9-yl)pyrimidin-4-yl)amino)-2-cyclopropyl-7-((3,3-difluorocyclobutyl)methyl)-1,2,3,4-tetrahydro-[1,4]oxazepino[2,3-c]quinolin-6(7H)-one]	8.08	28.8	–
C[C@H]1COC(=O)c2c(c3cc(Nc4cc(OC5CCOCC5)ncc4Cl)ccc3n(C)c2=O)N1 [Example 7a]	6.72	19100	–
C[C@@H]1CN(c2ncc(Cl)c(Nc3ccc4c(c3)c3c(c(=O)n4C)C(=O)OC[C@H](C)N3)n2)C[C@H](C)O1 [Example 8a, (S)-10-((5-chloro-2-((2S,6R)-2,6-dimethylmorpholino)pyrimidin-4-yl)amino)-2,7-dimethyl-2,3-dihydro-[1,4]oxazepino[6,5-c]quinoline-5,6(1H,7H)-dione]	6.97	9550	–
C[C@H]1COC(=O)c2c(c3cc(Nc4nc(N5C6CCCC5CC6)ncc4Cl)ccc3n(C)c2=O)N1 [Example 8b, (2S)-10-((2-(8-azabicyclo[3.2.1]octan-8-yl)-5-chloropyrimidin-4-yl)amino)-2,7-dimethyl-2,3-dihydro-[1,4]oxazepino[6,5-c]quinoline-5,6(1H,7H)-dione]	6.85	2190	–
C[C@H]1COC(=O)c2c(c3cc(Nc4nc(N5C6CCC5CC(F)(F)C6)ncc4Cl)ccc3n(C)c2=O)N1 [Example 8f, (2S)-10-((5-chloro-2-(3,3-difluoro-8-azabicyclo[3.2.1]octan-8-yl)pyrimidin-4-yl)amino)-2,7-dimethyl-2,3-dihydro-[1,4]oxazepino[6,5-c]quinoline-5,6(1H,7H)-dione]	6.67	6920	–
CN(C)C(=O)C1CCN(c2ncc(Cl)c(Nc3ccc4c(c3)c3c(c(=O)n4C)C(=O)OC[C@H](C4CC4)N3)n2)CC1 [Example 8m, (S)-1-(5-chloro-4-((2-cyclopropyl-7-methyl-5,6-dioxo-1,2,3,5,6,7-hexahydro-[1,4]oxazepino[6,5-c]quinolin-10-yl)amino)pyrimidin-2-yl)-N,N-dimethylpiperidine-4-carboxamide]	6.28	31600	–
Cn1c(=O)c2c(c3cc(Nc4nc(N5CCC(F)(F)CC5)ncc4Cl)ccc31)NC(C1CC1)COC2=O (centres unmarked) [Example 8o, 10-((5-chloro-2-(4,4-difluoropiperidin-1-yl)pyrimidin-4-yl)amino)-2-cyclopropyl-7-methyl-2,3-dihydro-[1,4]oxazepino[6,5-c]quinoline-5,6(1H,7H)-dione]	6.43	9330	–
Cn1c(=O)c2c(c3cc(Nc4ccnc(Cl)c4C#N)ccc31)N[C@@H](C1CC1)COC2 [Example 9b, (S)-2-chloro-4-((2-cyclopropyl-7-methyl-6-oxo-1,2,3,5,6,7-hexahydro-[1,4]oxazepino[6,5-c]quinolin-10-yl)amino)nicotinonitrile]	6.57	2000	–
Cn1c(=O)c2c(c3cc(Nc4nc(N5C6COCC5CC(O)C6)ncc4Cl)ccc31)NC(C1CC1)C(F)(F)CO2 [Example 11a, 10-((5-chloro-2-((1R,5S,7s)-7-hydroxy-3-oxa-9-azabicyclo[3.3.1]nonan-9-yl)pyrimidin-4-yl)amino)-2-cyclopropyl-3,3-difluoro-7-methyl-1,2,3,4-tetrahydro-[1,4]oxazepino[2,3-c]quinolin-6(7H)-one]	8.81	5.01	–
Cn1c(=O)c2c(c3cc(Nc4nc(N5C6COCC5CC(O)C6)ncc4Cl)cnc31)N[C@@H](C1CC1)CCO2 (stereo partly drawn) [Example 11b, (R)-10-((5-chloro-2-((1R,5S,7S)-7-hydroxy-3-oxa-9-azabicyclo[3.3.1]nonan-9-yl)pyrimidin-4-yl)amino)-2-cyclopropyl-7-methyl-1,2,3,4-tetrahydro-[1,4]oxazepino[2,3-c][1,8]naphthyridin-6(7H)-one]	8.16	32.4	–
Cn1c(=O)c2c(c3cc(Nc4nc(N5C6COCC5CC(O)C6)ncc4Cl)ccc31)N[C@@H](C1CC1)C(F)(F)CO2 (stereo partly drawn) [Example 11c, (S)-10-((5-chloro-2-((1R,5S,7R)-7-hydroxy-3-oxa-9-azabicyclo[3.3.1]-nonan-9-yl)pyrimidin-4-yl)amino)-2-cyclopropyl-3,3-difluoro-7-methyl-1,2,3,4-tetrahydro-[1,4]oxazepino[2,3-c]quinolin-6(7H)-one]	8.93	–	8.19
CN1CCN(c2ncc(Cl)c(Nc3ccc4c(c3)c3c(c(=O)n4C)OCC(F)(F)[C@H](C4CC4)N3)n2)CC1=O [Example 12a, (S)-10-((5-chloro-2-(4-methyl-3-oxopiperazin-1-yl)pyrimidin-4-yl)amino)-2-cyclopropyl-3,3-difluoro-7-methyl-1,2,3,4-tetrahydro-[1,4]oxazepino[2,3-c]quinolin-6(7H)-one]	8.82	18.6	–
CN1CCN(c2ncc(Cl)c(Nc3ccc4c(c3)c3c(c(=O)n4C)OCC[C@H](C4CC4)N3)n2)CC1=O [Example 12b, (R)-10-((5-chloro-2-(4-methyl-3-oxopiperazin-1-yl)pyrimidin-4-yl)amino)-2-cyclopropyl-7-methyl-1,2,3,4-tetrahydro-[1,4]oxazepino[2,3-c]quinolin-6(7H)-one]	7.80	60.3	–
Cn1c(=O)c2c(c3cc(Nc4nc(N5C6CCC5CC(O)C6)ncc4Cl)ccc31)N[C@@H](C1CC1)CCO2 (stereo partly drawn) [Example 12f, (R)-10-((5-chloro-2-((1R,3R,5S)-3-hydroxy-8-azabicyclo[3.2.1]octan-8-yl)pyrimidin-4-yl)amino)-2-cyclopropyl-7-methyl-1,2,3,4-tetrahydro-[1,4]oxazepino[2,3-c]quinolin-6(7H)-one]	7.96	295	–
Cn1c(=O)c2c(c3cc(Nc4nc(N5CC6CCC(C5)O6)ncc4Cl)ccc31)N[C@@H](C1CC1)CCO2 [Example 12g, (R)-10-((2-(8-oxa-3-azabicyclo[3.2.1]octan-3-yl)-5-chloropyrimidin-4-yl)amino)-2-cyclopropyl-7-methyl-1,2,3,4-tetrahydro-[1,4]oxazepino[2,3-c]quinolin-6(7H)-one]	7.54	776	–
Cn1c(=O)c2c(c3cc(Nc4nc(N5C6COCC5CC(C)(O)C6)ncc4Cl)ccc31)N[C@@H](C1CC1)CCO2 (stereo partly drawn) [Example 12h, (R)-10-((5-chloro-2-((1R,5S,7S)-7-hydroxy-7-methyl-3-oxa-9-azabicyclo[3.3.1]nonan-9-yl)pyrimidin-4-yl)amino)-2-cyclopropyl-7-methyl-1,2,3,4-tetrahydro-[1,4]oxazepino[2,3-c]quinolin-6(7H)-one]	7.93	145	–
CN1CC2CCC(C1)N2c1ncc(Cl)c(Nc2ccc3c(c2)c2c(c(=O)n3C)OCC[C@H](C3CC3)N2)n1 [Example 12i, (R)-10-((5-chloro-2-(3-methyl-3,8-diazabicyclo[3.2.1]octan-8-yl)pyrimidin-4-yl)amino)-2-cyclopropyl-7-methyl-1,2,3,4-tetrahydro-[1,4]oxazepino[2,3-c]quinolin-6(7H)-one]	7.81	148	–
